Laboratory results from patent US20100190711A1, “BIG GASTRIN I AS A THERAPEUTIC AGENT” (priority 2007, published 2010).
Where a SMILES comes first, the peptide text is derived from it. [ ]: non-standard residue; d: D form. pGlu = O=C1CC[C@@H](C(=O)O)N1

Key:
HIV-1IIIB = experiment: HIV-1 antiviral assay (CPE reduction, MTS) in CEM-SS cells; type: cell-based; details: peptide 10 micrograms per ml; 6 days post-infection
CEM-SS cells = experiment: Cytotoxicity (MTS cell viability) in the HIV-1 assay; details: CEM-SS cells, MTS; peptide 10 micrograms per ml
Streptococcus pneumoniae = type: cell-based; details: 5 micrograms per ml
Pseudomonas aeruginosa = type: cell-based; details: 5 micrograms per ml
MRSA = details: 5 micrograms per ml
[1] = Cytotoxicity (MTS cell viability) in the HIV-1 assay; details: human, CEM-SS cells (uninfected, cells plus peptide only)
in vitro = details: human, HepG2-2.2.15 cells
[2] = Cytotoxicity (CellTiter 96 cell viability) in the HCMV assay; details: human, MRC-5 cells (embryonal lung fibroblasts)
MRC-5 cells = experiment: as above; details: MRC-5 cells, 6 days incubation

With `Cc1cn([C@H]2C[C@H](N=[N+]=[N-])[C@@H](CO)O2)c(=O)[nH]c1=O` [AZT, reference compound] the “% CPE reduction in HIV-1 infected CEM-SS cells” value (HIV-1IIIB) was 99% and the “% Cell viability” value (CEM-SS cells) was 97%.
For `CSCC[C@H](NC(=O)[C@H](Cc1c[nH]c2ccccc12)NC(=O)CNC(=O)[C@H](Cc1ccc(O)cc1)NC(=O)[C@H](C)NC(=O)[C@H](CCC(=O)O)NC(=O)[C@H](CCC(=O)O)NC(=O)[C@H](CCC(=O)O)NC(=O)[C@H](CCC(=O)O)NC(=O)[C@H](CCC(=O)O)NC(=O)[C@H](CC(C)C)NC(=O)[C@H](Cc1c[nH]c2ccccc12)NC(=O)[C@@H]1CCCN1C(=O)CNC(=O)[C@H](CCC(N)=O)NC(=O)[C@H](CCCCN)NC(=O)[C@H](CCCCN)NC(=O)[C@H](CO)NC(=O)[C@@H]1CCCN1C(=O)[C@H](CC(=O)O)NC(=O)[C@H](C)NC(=O)[C@@H](NC(=O)[C@H](CC(C)C)NC(=O)[C@H](Cc1c[nH]cn1)NC(=O)[C@@H]1CCCN1C(=O)[C@@H]1CCCN1C(=O)CNC(=O)[C@H](CCC(N)=O)NC(=O)[C@@H]1CCCN1C(=O)CNC(=O)[C@H](CC(C)C)NC(=O)[C@@H]1CCC(=O)N1)C(C)C)C(=O)N[C@@H](CC(=O)O)C(=O)N[C@@H](Cc1ccccc1)C(N)=O` [Big Gastrin I] ([pGlu]LGPQGPPHLVADPSKKQGPWLEEEEEAYGWMDF-NH2), the “% inhibition” value (Streptococcus pneumoniae) was 0.0%, the “% inhibition” value (Pseudomonas aeruginosa) was 0.0% and the “% inhibition” value (MRSA) was 0.0%. It also gave a viability at 10 micrograms per ml [1] of 100%, a viability at 144 h, 10 micrograms per ml (in vitro) of 88.7% and a viability at 144 h [2] of 100%.
For `Nc1nc(O)c2ncn(COC(CO)CO)c2n1` [Ganciclovir, reference compound], the “% Cell viability” value (MRC-5 cells) was 100%.
With `CC(C)(C)NC(=O)[C@@H]1CN(Cc2cccnc2)CCN1C[C@@H](O)C[C@@H](Cc1ccccc1)C(=O)N[C@H]1c2ccccc2C[C@H]1O` [Indinavir, indinavir] the “% CPE reduction in HIV-1 infected CEM-SS cells” value (HIV-1IIIB) was 100%.
